Assay in all cases: NCI tumour cell line growth inhibition, 48 h
Assay [1] concerns DLD-1 colon.
The test system of assay [2] is DMS 114 small cell lung.
Assay [3] has as its system HOP-18 NSCLC.
For assay [4], the system named is KM20L2 colon.
In assay [5] the test system is M19-MEL melanoma.
The subject of assay [6] is MDA-N.
Assay [7] relates to SNB-78 CNS.
The subject of assay [8] is XF 498 CNS.
For assay [9], the system named is RXF-631 renal.
Assay [10] relates to P388 leukemia.
Assay [11] concerns P388/ADR leukemia.
For assay [12], the system named is SN12K1 renal.

Each structure is given as a SMILES string. Where “and” joins values, the source holds several entries; their conditions need not be identical. Equal entries are not always repeated.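 Tested at 5 concentrations; 48 h exposure; 96-well plates; endpoints linearly interpolated, else capped at highest concentration. GI50: concentration for 50% inhibition of growth. TGI denotes the concentration required for complete inhibition of growth.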

For the compound `CN(C)CCNc1ccc2ncn3c4ccc(O)cc4c(=O)c1c23`, the TGI stood at 16.1 µM in assay [1]; 16.8 µM in assay [2]; 49.6 µM in [3]; 12.9 µM in assay [4]; 13.1 µM in assay [5]; 15.1 µM in assay [6]. Further, the figures for the TGI in [7] and in [8] were 21.4 µM and 17.1 µM, respectively.

Regarding `NC(=O)CC1OC(=O)Cc2cc3c(c(O)c21)C(=O)c1c(O)cccc1C3=O` (stereo not drawn), the TGI in assay [6] was above 100 µM.

In [6], `O=C1Nc2c(Cl)cc(Cl)cc2/C1=N/N=C/c1ccco1` had a TGI of 55.3 µM.

`O=[N+]([O-])c1nccn1CC(O)c1ccccc1` (stereo not drawn): the TGI in assay [2], in assay [3], in assay [4] and in assay [8] was above 100 µM in each case.

`CCOC(=O)c1ccc(-n2cnc(-c3ccc([N+](=O)[O-])cc3)c2)cc1`: the TGI in assay [6] is above 100 µM.

With `CCOC(=O)C12CCCC1(O)N(NC(=O)OC)C(C)=C2C(=O)OC` (stereo not drawn), the TGI in assay [1], in assay [2], in assay [3], in assay [4], in assay [5] and in [9] was above 100 µM throughout. Besides, the TGI in assay [7] and in [8] was above 100 µM each time.

For the compound `Cc1cccc(-c2nnc3s/c(=C\c4ccc(N(C)C)cc4)c(=O)n23)c1`, the TGI in [1], in assay [3], in assay [4], in [5], in [7] and in assay [8] was above 100 µM throughout.

Take `O=C(CC1(O)C(=O)Nc2c(Cl)cc(Cl)cc21)c1ccccc1` (stereo not drawn): the TGI in assay [2], in [4], in assay [5], in assay [9], in assay [7] and in assay [8] was above 100 µM each time.

With `O=C(O)Cc1cccc2c(=O)cc(-c3ccccc3)oc12`, the TGI in assay [1] was above 250 µM; in assay [2], 250 µM; in assay [3], 250 µM; in assay [4], above 250 µM; in assay [5], above 250 µM; in assay [6] it was 250 µM and > 893 µM. Further, the TGI was 250 µM in [10]; 150 µM in [11]; above 250 µM in assay [12]; above 250 µM in assay [7]; 89.7 µM in assay [8]. For the same compound, in [6], the GI50 was 176 µM.

Turning to `c1ccc(SC(Sc2ccccc2)=C2CCC2)cc1`, the TGI in assay [1], in [2], in assay [4], in assay [5], in assay [9] and in assay [7] was above 100 µM each time. Further, in assay [8], the TGI is above 100 µM.

Turning to `Nc1nc(=O)n(C2CCC(CO)O2)cc1F` (stereo not drawn), the TGI in assay [1], in assay [2], in [3], in [4] and in [7] was above 100 µM throughout.

In the case of `CSC(=NC(=O)c1ccccc1Cl)SCCSC(=NC(=O)c1ccccc1Cl)SC`, the TGI in assay [1], in assay [2], in assay [4], in [5], in [7] and in assay [8] was above 100 µM each time.

For the compound `O=C(c1c(F)c(F)c(F)c(F)c1F)c1c(F)c(F)c(F)c(F)c1F`, the TGI in [6] is 3.11 µM.

With `NC(=O)c1cc(N2CC2)c([N+](=O)[O-])cc1[N+](=O)[O-]`, in assay [6], the TGI is above 200 µM.

With `CC(Oc1ccc2c(-c3ccc(Cl)cc3)cc(=O)oc2c1)C(=O)O` (stereo not drawn), the TGI in assay [1], in assay [3], in assay [4], in assay [9], in assay [7] and in assay [8] was above 100 µM throughout.

`CC(C)(C)C(=O)N1C(C(=O)O)Cc2ccccc2[C@@H]1Cc1ccccc1` (stereo partly drawn): the TGI in [2], in assay [3], in assay [4], in assay [5], in assay [9] and in assay [7] was above 100 µM each time. The compound also came in with a TGI in assay [8] above 100 µM.

Take `O=C1C2CCN(CC2)C1CN1CCOCC1` (stereo not drawn): the TGI was 3.18 µM in assay [1]; 15.8 µM in assay [3]; 37 µM in assay [4]; 26.2 µM in [5]; 20.1 µM in assay [6]; 31 µM in assay [9]. Further, the figures for the TGI in [7] and in assay [8] were 56.1 µM and 14.5 µM, respectively.

Take `COC(=O)CCC(=O)Nc1ccc(Cl)cc1C`: the TGI in assay [1], in assay [2], in assay [3], in assay [4], in assay [5] and in [9] was above 100 µM in each case. Besides, the TGI in assay [7] and in assay [8] was above 100 µM throughout.

Regarding `CC(C)(C)OC(=O)C1C(=O)NC(=O)CC1CC(OCc1ccccc1)C(OCc1ccccc1)C(COCc1ccccc1)OCc1ccccc1` (stereo not drawn), in assay [6], the GI50 was > 100 µM and 34.2 µM; the TGI was above 100 µM.

For the compound `COc1ccc(/C=C/c2cc(OC)c(OC(C)=O)c(OC)c2)cc1`, the TGI in assay [1] is above 100 µM; in assay [2], 84.7 µM; in assay [4], above 100 µM; in assay [5] it was above 100 µM; in assay [9], above 100 µM; in assay [7], 76.1 µM. The TGI in assay [8] is above 100 µM.

In the case of `CCN(CC)CCN(CC)CC.CCN(CC)CCN(CC)CC.[Cu+2].[Cu+2].[O-][Cl+3]([O-])([O-])[O-].[OH3+].[OH3+]`, the GI50 in [1] was 51.9 µM; in assay [2], 16.6 µM; in assay [3], above 100 µM; in assay [4], 23.9 µM; in [5] it was 24.2 µM; in assay [7], above 100 µM. In addition, the TGI in assay [1] was above 100 µM; in [2], 32.6 µM; in assay [3], above 100 µM; in assay [4], 61.4 µM; in assay [5], 53.7 µM; in [7] it was above 100 µM.

For the compound `CSC(=O)C[C@@]12O[C@@H]([C@@H](C)C3CCC4[C@@H]5C(O)CC6=CC(=O)C=C[C@]6(C)C5CC[C@@]43C)C[C@](C)(O1)C(C)(C)O2` (stereo partly drawn), the TGI in [2] came out at 39.9 µM; in assay [5] it was 8.4 µM; in assay [9] it was 54.9 µM; in assay [7], 37.6 µM; in [8], 28.8 µM.

Take `Cc1ccc(NCC2(/N=C/c3ccccc3)OC(CO)C(O)C2O)cc1` (stereo not drawn): the TGI is above 100 µM in [1], above 100 µM in assay [2], 49.4 µM in [4] and above 100 µM in assay [8].

As to `CN(C)c1ccc(/C=c2\sc3nnc(-c4ccco4)n3c2=O)cc1`, the TGI in assay [1], in assay [2], in [3], in assay [4], in assay [5] and in assay [9] was above 100 µM each time. The TGI in [7] and in [8] was above 100 µM in each case.

`O=C(O)c1cccc(S(=O)(=O)NCCO)c1` displayed a TGI in assay [6] above 100 µM.

Take `Cc1ccc(/C=C/C(=O)c2ccc(Cl)c(Cl)c2)cc1`: the TGI in [1], in assay [3], in assay [4], in [9], in assay [7] and in [8] was above 100 µM in each case.

`[N-]=[N+]=NCN1C(=O)C2C3C=CC(C2C1=O)C1C2C(=O)N(CN=[N+]=[N-])C(=O)C2C31` (stereo not drawn) came in with a TGI in assay [6] above 100 µM.

In turn, `Cc1ccc(OCC2CO2)c(Br)c1` (stereo not drawn) registered a TGI in assay [6] of 58.9 µM.

Regarding `CCC[CH2][Sn](=[O])[CH2]CCC`, the GI50 in assay [1], in assay [2], in assay [3], in [4], in assay [5] and in [7] was above 50 µM throughout. In addition, the TGI in [1], in assay [2], in [3], in assay [4], in [5] and in assay [7] was above 50 µM in each case.

As to `CCCCCCCCCCCCSC(=S)c1c(C)[nH]n(-c2ccccc2)c1=O`, the TGI in assay [1] was above 50 µM; in [2], 28.4 µM; in [3], above 50 µM; in assay [4], 39.5 µM; in [9], above 50 µM; in assay [7], above 50 µM.

On to `OC1CC2CCC(C1)N2CCCN1c2ccccc2Sc2ccc(Cl)cc21` (stereo not drawn), for which the TGI in assay [6] was 3.62 µM.

Take `CC(=O)OC12C(C)=C(C)C(=O)N1c1ccccc1N2C(C)=O` (stereo not drawn): the TGI in assay [3], in assay [4], in [5], in [7] and in assay [8] was above 100 µM throughout.

As to `NC(=S)N1N=C2CCCCCC[C@@H]2[C@H]1c1ccccc1`, the TGI in assay [1] was above 100 µM; in assay [2] it was above 100 µM; in assay [4], above 100 µM; in assay [5], above 100 µM; in assay [7] it was above 100 µM; in [8], 76.5 µM.

Values taken from PubChem BioAssay (NCI).
